Results reported in patent publication US12215135B2, “PDL2 compounds” (IO BIOTECH APS, priority 2016, dated 2025).
Entries after “also recorded” stand apart in the source; their conditions may differ.

Legend:
[1] = system: PBMCs from patients with cancer and healthy donors; assay: IFN-γ ELISPOT assay on PBMCs; assay type: cell-based, human; conditions: for IFN-γ ELISPOT response, significance according to the DFR test / IFN-γ ELISPOT response, significance according to the DFR×2 rule: 5 selected PBMCs, patients with malignant melanoma; for specific T-cell responses, IFN-γ ELISPOT in vitro assay: PBMCs from HLA-A2+ patients with cancer, stimulated once in vitro with peptide; for immune responses, IFN-γ ELISPOT assay: PBMCs from healthy donors; for CD4+ T cell responses against long peptides, IFN-γ ELISPOT assay: PBMCs from 11 patients with cancer and 11 healthy donors
Protocol: (§1) We collected blood samples from patients with melanoma, renal cell carcinoma, non-hodgkin lymphoma, and ovarian cancer and from healthy. Samples were collected a minimum of four weeks after the termination of any kind of anti-cancer therapy. Peripheral blood mononuclear cells (PBMCs) were isolated using Lymphoprep™ (Alere A S, cat. 1114547) separation, HLA-typed and frozen in FCS with 10% DMSO (Sigma-Aldrich, cat. D5879-100ML). Tumor Infiltrating lymphocytes (TIL) from lesions from two melanoma patients were expanded using high dose IL-2 (6000 units/ml). The protocol was approved by the Scientific Ethics Committee for The Capital Region of Denmark and conducted in accordance with the provisions of the Declaration of Helsinki. Before study entry, a written informed consent from the patients was obtained.
(§2) The IFN-γ and TNF-α ELISPOT technique was performed as described previously (3). We performed the assays according to the guidelines provided by the cancer immunotherapy immunoguiding program (CIP; cimt.eu/cimt/files/dl/cip guidelines.pdf). Unless stated otherwise, PBMCs were stimulated once in vitro with peptide prior to analysis to extend the sensitivity of the assay. To measure T-cell reactivity, nitrocellulose-bottomed 96-well plates (MultiScreen MSIPN4W; Millipore) were coated overnight at room temperature or two days at 4° C. with the relevant antibodies. The wells were washed and blocked with X-vivo medium for 2 h. The PBMCs were added at different cell concentrations in triplicate wells, with PD-L2 peptide or with control peptide, and incubated overnight. The following day, the wells were washed, and the relevant biotinylated secondary antibody (Mabtech) was added, followed by the avidin-enzyme conjugate (AP-Avidin; Calbiochem/Invitrogen Life Technologies); finally, we added the enzyme substrate, NBT/BCIP (Invitrogen Life Technologies) for visualization. The spots on the developed ELISPOT plates were analyzed on a CTL ImmunoSpot S6 Ultimate-V analyzer with Immunospot software, v5.1.
An ELISPOT response was defined, based on the guidelines and recommendations provided by CIP and Moodie et al (5). The non-parametric distribution-free resampling (DFR) and more conservative DFR×2 statistical test were used for a formal comparison between antigen-stimulated wells and negative-control wells. The ELISPOT assays were performed at least in triplicate.

[2] = system: PBMCs from patients with malignant melanoma; assay: TNF-α ELISPOT assay on PBMCs; assay type: cell-based, human; conditions: 5 selected PBMCs
Protocol: as §1
The IFN-γ and TNF-α ELISPOT technique was performed as described previously (3). We performed the assays according to the guidelines provided by the cancer immunotherapy immunoguiding program (CIP; cimt.eu/cimt/files/dl/cip guidelines.pdf). Unless stated otherwise, PBMCs were stimulated once in vitro with peptide prior to analysis to extend the sensitivity of the assay. […] The spots on the developed ELISPOT plates were analyzed on a CTL ImmunoSpot S6 Ultimate-V analyzer with Immunospot software, v5.1. […]

[3] = system: Tumor infiltrating T-lymphocytes from two melanoma patients; assay: Intracellular cytokine staining of tumor infiltrating T-lymphocytes; assay type: cell-based, human; conditions: TILs from two melanoma patients
Protocol: as §1
To detect cell subpopulations that produced cytokines, we stimulated a PD-L1-specific T-cell culture (previously described (1)) and a PD-L2-specific T-cell culture with 5 μg/ml of relevant or irrelevant peptide, and incubated the cells for 5 h at 37° C. with 5% CO2. After 1 h of incubation, we added GolgiPlug (BD), diluted at 1:200. […] Stained cells were analyzed with a BD FACSCanto II flow cytometer. […]

[4] = system: T cells; conditions: previously described, refs (1), (2), (6); cited from earlier work
[5] = system: PD-L101-specific CD8+ T cells; assay: Intracellular cytokine staining of PD-L101-specific T-cell culture; assay type: cell-based, human
Protocol: (§3) To detect cell subpopulations that produced cytokines, we stimulated a PD-L1-specific T-cell culture (previously described (1)) and a PD-L2-specific T-cell culture with 5 μg/ml of relevant or irrelevant peptide, and incubated the cells for 5 h at 37° C. with 5% CO2. After 1 h of incubation, we added GolgiPlug (BD), diluted at 1:200. After 4 h, cells were washed twice with PBS, stained with fluorochrome-conjugated antibodies specific for surface markers (CD3-APC-H7, CD4-PerCP/FITC, CD8-Pacific Blue/PerCP, and Horizon Fixable Viability Stain 510, all from BD). Cells were washed, fixed, and permeabilized with Fixation/Permeabilization and Permeabilization Buffer (eBioscience), according to the manufacturer's instructions. Cells were subsequently stained with fluorochrome-conjugated antibodies to visualize intracellular cytokines. The following antibody-fluorochrome combinations were used: IFNγ-PE-CY7/APC (eBioscience) and TNFα-APC/BV421 (eBioscience). Relevant isotype controls were used to enable correct compensation and confirm antibody specificity. Stained cells were analyzed with a BD FACSCanto II flow cytometer. Analysis was performed with BD FACSDiva Software.

[6] = system: TAP-deficient T2 cells pulsed with peptide; assay: 51Cr release assay, PD-L101-specific T-cell culture against peptide-pulsed T2 cells; assay type: cell-based, human; conditions: different effector-to-target ratios
Protocol: (§4) Cytotoxicity Assay PD-L1-specific and PD-L2-specific T-cell-mediated cytotoxicity was measured with conventional 51chromium-release assays, as previously described (4). Target cells were TAP deficient T2 cells, pulsed with HIV-1 pol476-484 ([…], SEQ ID NO: 26), PD-L101 (PD-L1(15-23)), or PD-L205 (PD-L2(16-25)). siRNA-Mediated PD-L2 Silencing of DCs

[7] = system: TAP deficient T2 cells pulsed with peptide; assay: 51chromium-release cytotoxicity assay, PD-L2-specific T-cell cultures against peptide-pulsed T2 cells; assay type: cell-based, human; conditions: cultures A and B
Protocol: (§5) PBMCs from a patient with melanoma were stimulated with irradiated (30 Gy) autologous DCs, which had been pulsed with PD-L205 (PD-L2(16-25)) peptide (PBL:DC ratio 10:1) and IL-7 (40 U/ml) were added (PeproTech, London, UK). The next day, IL-12 (20 U/ml) was added (PeproTech, London, UK). At weekly intervals, we performed three identical stimulations, with irradiated autologous DCs loaded with PDL205 (PD-L2(16-25)), and IL-12 (20 U/ml) added the next day. Then, at weekly intervals, we stimulated the culture three more times with irradiated autologous PBLs loaded with PDL205 (PD-L2(16-25)) (culture:PBL ratio 1:1), but the next day, we added IL-2 (120 U/ml; Proleukin, Novartis).
(§6) The culture was enriched for specific T cells, either by staining with an anti-CD137-PE antibody (BD-Biosciences) or by employing a TNF-α-enrichment and detection kit (according to the procedure by Miltenyi Biotec). Next, we performed magnetic cell isolation with a MACs microbead column (according to the procedure by Miltenyi Biotec). The sorted cells were rapidly expanded by incubating with 0.6 μg anti-CD3 antibody (eBioscience, clone OKT3) and a high dose of IL-2 (Proleukin, Novartis).
as §4

[8] = system: PD-L2 T cell culture-A and -B (PD-L205-specific T cells); assay: Intracellular cytokine staining of PD-L2-specific T-cell cultures; assay type: cell-based, human
Protocol: as §5, §6, §3

[9] = system: PD-L2 T cell culture-A and -B (PD-L205-specific T cells); assay: ELISPOT assay on PD-L2-specific T-cell cultures; assay type: cell-based, human; conditions: both PD-L2 specific cultures
Protocol: as §2, with “v5.1. […]” for “v5.1.”

Sequence: LLLMLSLEL (Peptide fragment of human PDL2) [PD-L201, HLA-A2 restricted peptide fragment of human PD-L2]
- IFN-γ ELISPOT response, significance according to the DFR test [1]: statistically significant
- IFN-γ ELISPOT response, significance according to the DFR×2 rule [1]: statistically significant
- specific T-cell responses, IFN-γ ELISPOT in vitro assay [1]: detected immune responses
- immune responses, IFN-γ ELISPOT assay [1]: weaker responses
- TNF-α ELISPOT response, significance according to the DFR test [2]: statistically significant

Sequence: MIFLLLMLSLELQLHQIAALFTVTV (Peptide fragment of human PDL2) [PD-L2long2]
- CD4+ T cell responses against long peptides, IFN-γ ELISPOT assay [1]: frequent but moderate responses
- IFN-γ responses, in vitro ELISPOT assay ([1]; PBMCs from four non-hodgkin lymphoma patients, DFR rule): All four patients showed responses that were statistically significant
- IFN-γ CD4+ T-cell responses, intracellular cytokine staining [3]: elicited IFN-γ CD4+ T-cell responses

Sequence: SLELQLHQIAALFTVTVPKEL (Peptide fragment of human PDL2) [PD-L2long1]
- CD4+ T cell responses against long peptides, IFN-γ ELISPOT assay [1]: frequent but moderate responses

Sequence: LLNAFTVTV (PD-L101 (PDL1 peptide))
- spontaneous T-cell responses, IFN-γ ELISPOT test ([1]; PBMCs from patients with cancer that responded to PD-L205): did not detect any immune response
- T cell response elicited by epitope [4]: strong T cell response
- cytokine release (IFN-γ and TNF-α) from PD-L101-specific CD8+ T cells [5]: released cytokines only in response to PD-L101
- lysis of peptide-pulsed T2 cells by PD-L101-specific T cells [6]: only lysed T2-cells pulsed with PD-L101
- recognition and lysis of peptide-pulsed T2 cells by PD-L2 (PD-L205)-specific T-cell cultures [7]: did not kill

Sequence: ILKEPVHGV (HIV-1 (HLA-A2 high affinity binding epitope)) [HIV-1 pol476-484]
- lysis of peptide-pulsed T2 cells by PD-L101-specific T cells [6]: no cytotoxicity was observed
- recognition and lysis of peptide-pulsed T2 cells by PD-L2 (PD-L205)-specific T-cell cultures [7]: did not recognize; also recorded: did not kill

Sequence: FIFIATVIAL (Peptide fragment of human PDL2) [PD-L215, HLA-A2 restricted peptide fragment of human PD-L2]
- specific T-cell responses, IFN-γ ELISPOT in vitro assay [1]: detected immune responses

Sequence: QIAALFTVTV (Peptide fragment of human PDL2) [PD-L205, HLA-A2 restricted peptide fragment of human PD-L2]
- CD4+ T cells with TNF-α release in response to peptide ([8]; PD-L2 T cell culture-A): about 4.5%
- CD8+ T cells with TNF-α release in response to peptide ([8]; PD-L2 T cell culture-A): ~1%
- CD4+ T cells with TNF-α release in response to peptide ([8]; PD-L2 T cell culture-B): about 7%
- CD8+ T cells with TNF-α release in response to peptide ([8]; PD-L2 T cell culture-B): ~2%
- IFN-γ ELISPOT response, significance according to the DFR test [1]: statistically significant
- IFN-γ ELISPOT response, significance according to the DFR×2 rule [1]: statistically significant
- specific T-cell responses, IFN-γ ELISPOT in vitro assay [1]: detected immune responses
- ex vivo IFN-γ ELISPOT response ([1]; PBMCs from four donors, directly ex vivo without prior in vitro peptide stimulation, DFR rule): one of these donors showed an ex vivo IFN-γ response that was statistically significant
- immune responses, IFN-γ ELISPOT assay [1]: strong immune responses
- epitope dominance in eliciting immune responses ([1]; in general, across donors): dominant PD-L2 epitope; also recorded: strongest responses
- TNF-α ELISPOT response, significance according to the DFR test [2]: statistically significant
- IFN-γ and TNF-α T cell responses, ELISPOT [9]: T cell responses were observed
- lysis of peptide-pulsed T2 cells by PD-L101-specific T cells [6]: no cytotoxicity was observed
- recognition and lysis of peptide-pulsed T2 cells by PD-L2 (PD-L205)-specific T-cell cultures [7]: could indeed recognize
- recognition and lysis of peptide-pulsed T2 cells by PD-L2 (PD-L205)-specific T-cell cultures ([7]; listed as PDL205): recognized and lysed
